Assay results published in ChEMBL document CHEMBL5291721, “A preclinical secondary pharmacology resource illuminates target-adverse drug reaction associations of marketed drugs” (Nat Commun, 2023).

Columns and labels:
D(1A) dopamine receptor = D(1A) dopamine receptor (Homo sapiens, UniProt P21728)
[1] = biological target: Prostaglandin G/H synthase 1 (Homo sapiens, UniProt P23219); type: functional
[2] = biological target: T1, Equilibrative nucleoside transporter 1 (Homo sapiens, UniProt Q99808)
T1 sequence (Q99808 whole entry): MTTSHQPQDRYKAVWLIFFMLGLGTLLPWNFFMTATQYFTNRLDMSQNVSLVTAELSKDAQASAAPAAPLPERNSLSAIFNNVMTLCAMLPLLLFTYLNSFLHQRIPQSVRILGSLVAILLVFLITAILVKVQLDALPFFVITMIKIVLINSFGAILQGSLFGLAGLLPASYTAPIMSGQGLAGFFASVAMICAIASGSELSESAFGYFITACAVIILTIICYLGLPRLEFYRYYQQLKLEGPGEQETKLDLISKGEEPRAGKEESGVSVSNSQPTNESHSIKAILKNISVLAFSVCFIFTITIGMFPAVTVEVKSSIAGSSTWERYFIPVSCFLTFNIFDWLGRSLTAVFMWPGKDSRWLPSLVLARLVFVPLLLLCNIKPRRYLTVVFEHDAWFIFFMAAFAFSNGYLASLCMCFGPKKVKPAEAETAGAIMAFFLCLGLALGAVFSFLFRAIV
Further: assay procedure not described here.

Sequence of D(1A) dopamine receptor (P21728 whole entry): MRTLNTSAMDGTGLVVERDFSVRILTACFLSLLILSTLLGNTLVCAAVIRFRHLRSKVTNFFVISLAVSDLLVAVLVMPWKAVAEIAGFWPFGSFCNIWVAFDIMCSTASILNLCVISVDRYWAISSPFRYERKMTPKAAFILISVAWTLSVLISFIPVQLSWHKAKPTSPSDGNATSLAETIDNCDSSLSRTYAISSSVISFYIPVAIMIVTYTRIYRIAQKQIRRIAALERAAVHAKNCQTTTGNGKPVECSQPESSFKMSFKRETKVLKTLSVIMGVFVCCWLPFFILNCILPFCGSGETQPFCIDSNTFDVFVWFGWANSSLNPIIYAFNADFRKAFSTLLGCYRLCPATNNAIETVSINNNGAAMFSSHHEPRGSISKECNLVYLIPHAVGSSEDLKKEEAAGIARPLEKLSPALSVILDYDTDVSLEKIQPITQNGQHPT
Sequence of Prostaglandin G/H synthase 1 (P23219 whole entry): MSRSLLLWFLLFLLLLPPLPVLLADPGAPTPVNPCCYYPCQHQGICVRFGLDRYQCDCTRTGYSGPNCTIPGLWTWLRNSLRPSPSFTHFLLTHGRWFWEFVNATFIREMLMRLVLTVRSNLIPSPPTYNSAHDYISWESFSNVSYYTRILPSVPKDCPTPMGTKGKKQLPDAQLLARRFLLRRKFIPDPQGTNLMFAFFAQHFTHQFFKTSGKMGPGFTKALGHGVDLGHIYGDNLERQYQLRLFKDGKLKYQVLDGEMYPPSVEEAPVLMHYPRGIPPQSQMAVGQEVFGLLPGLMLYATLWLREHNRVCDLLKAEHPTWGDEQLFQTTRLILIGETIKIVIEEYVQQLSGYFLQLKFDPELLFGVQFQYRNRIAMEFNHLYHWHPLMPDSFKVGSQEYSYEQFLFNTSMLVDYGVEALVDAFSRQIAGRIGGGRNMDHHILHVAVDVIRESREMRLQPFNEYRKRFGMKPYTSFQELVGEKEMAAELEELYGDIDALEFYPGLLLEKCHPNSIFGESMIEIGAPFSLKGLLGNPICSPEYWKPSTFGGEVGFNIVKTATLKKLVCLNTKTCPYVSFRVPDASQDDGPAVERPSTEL

| SMILES | AC50 (D(1A) dopamine receptor) [µM] | AC50 [1] [µM] | AC50 [2] [µM] |
| --- | --- | --- | --- |
| C=C1CC[C@H](O)C/C1=C/C=C1\CCC[C@]2(C)[C@@H]([C@H](C)CCCC(C)C)CC[C@@H]12 [CHOLECALCIFEROL] | > 30 | 22.9 | – |
| Cc1ncc2c(c1O)COC2c1ccc(Cl)cc1 (stereo unspecified) [CICLETANINE] | > 30 | > 30 | – |
| Cc1cn([C@H]2O[C@@H](CO)[C@H](O)[C@H]2F)c(=O)[nH]c1=O [CLEVUDINE] | > 30 | > 30 | – |
| N#Cc1ccc(Oc2ccc3c(c2)COB3O)cc1 [CRISABOROLE] | > 30 | > 30 | – |
| CC(=O)[C@H]1CC[C@H]2[C@@H]3C=CC4=CC(=O)CC[C@@]4(C)[C@@H]3CC[C@]12C [DYDROGESTERONE] | > 30 | > 30 | – |
| CC(=O)O[C@H]1Cc2ccccc2N(C(N)=O)c2ccccc21 [ESLICARBAZEPINE ACETATE] | > 30 | > 30 | – |
| CC(O)(P(=O)(O)O)P(=O)(O)O [ETIDRONIC ACID] | > 30 | > 30 | – |
| Cc1ccc(S(=O)(=O)NC(=O)NC2CCCCC2)cc1 [GLYCYCLAMIDE] | > 30 | > 30 | – |
| CN1CCCN(C(c2ccccc2)c2ccc(Cl)cc2)CC1 (stereo unspecified) [HOMOCHLORCYCLIZINE] | 2.4 | > 30 | – |
| CC(=O)OCC(=O)[C@@]1(O)CC[C@H]2[C@@H]3CCC4=CC(=O)CC[C@]4(C)[C@H]3[C@@H](O)C[C@@]21C [HYDROCORTISONE ACETATE] | > 30 | > 30 | – |
| CC(COc1ccccc1)NC(C)C(O)c1ccc(O)cc1 (stereo unspecified) [ISOXSUPRINE] | 9.44 | > 30 | – |
| O=C(CCC/C=C\C[C@@H]1[C@@H](CC[C@@H](O)CCc2ccccc2)[C@H](O)C[C@@H]1O)OCCCCO[N+](=O)[O-] [LATANOPROSTENE BUNOD] | > 30 | > 30 | – |
| Cc1oc(=O)oc1COC(=O)[C@@H]1N2C(=O)[C@@H](NC(=O)[C@H](N)c3ccccc3)[C@H]2SC1(C)C [LENAMPICILLIN] | > 30 | > 30 | – |
| COc1ccc(OC)c(C(O)C(C)N)c1 (stereo unspecified) [METHOXAMINE] | > 30 | > 30 | – |
| CC1(CCN2CCCCC2)C(=O)CCc2ccccc21 (stereo unspecified) [NEPINALONE] | > 30 | > 30 | – |
| COC(=O)C[C@](O)(CCCC(C)(C)O)C(=O)O[C@@H]1C(OC)=C[C@]23CCCN2CCc2cc4c(cc2[C@H]13)OCO4 [OMACETAXINE MEPESUCCINATE] | > 30 | > 10 | – |
| COc1cccc(C(=O)CCN[C@@H](C)[C@H](O)c2ccccc2)c1 [OXYFEDRINE] | 16.4 | > 30 | – |
| CC[N+](C)(CC)CCOC(=O)C(O)(c1ccccc1)C1CCCCC1 (stereo unspecified) [OXYPHENONIUM] | > 30 | > 30 | – |
| C[C@@H]1C[C@H]2[C@@H]3C[C@H](F)C4=CC(=O)C=C[C@]4(C)[C@H]3[C@@H](O)C[C@]2(C)[C@@]1(O)C(=O)CO [PARAMETHASONE] | > 30 | > 30 | – |
| CCC[C@H](N[C@@H](C)C(=O)N1[C@H](C(=O)O)C[C@@H]2CCCC[C@@H]21)C(=O)OCC [PERINDOPRIL] | > 30 | > 30 | – |
| NNCCc1ccccc1 [PHENELZINE] | > 30 | 0.891 | – |
| N[C@@H](Cc1ccccc1)C(=O)O [PHENYLALANINE] | > 30 | 28 | – |
| CCCn1cnc2c1c(=O)n(CCCCC(C)=O)c(=O)n2C [PROPENTOFYLLINE] | > 30 | > 30 | – |
| Clc1ccc(C(Cn2ccnc2)OCc2csc3c(Cl)cccc23)c(Cl)c1 (stereo unspecified) [SERTACONAZOLE] | 5.39 | 7.68 | – |
| CC(OCCN1CCCCCC1)(c1ccccc1)c1ccc(Cl)cc1 (stereo unspecified) [SETASTINE] | 6.96 | > 30 | – |
| COc1cc(C)c2c(Oc3cccc(C(F)(F)F)c3)c(OC)cc(NC(C)CCCN)c2n1 (stereo unspecified) [TAFENOQUINE] | 16.4 | 9.38 | – |
| CCCSc1nc(N[C@@H]2C[C@H]2c2ccc(F)c(F)c2)c2nnn([C@@H]3C[C@H](OCCO)[C@@H](O)[C@H]3O)c2n1 [TICAGRELOR] | 14.9 | > 30 | 0.365 |
| c1ccc2c(SC3=NCCN3)c[nH]c2c1 [TINAZOLINE] | > 30 | > 30 | – |
| Cc1ccc(C(=O)C(C)CN2CCCCC2)cc1 (stereo unspecified) [TOLPERISONE] | > 30 | > 30 | – |
| COc1ccc2c(C(=S)N(C)CC(=O)O)cccc2c1C(F)(F)F [TOLRESTAT] | > 30 | > 30 | – |
